Values belong to the compound of their own block, whether it stands above or below them.
Key:
Homo sapiens [1] = organism: Homo sapiens; test: Selectivity ratio of Ki for TCPTP (unknown origin) to Ki for human PTP1B (1 to 288 residues)
[2] = molecular target: T1, Tyrosine-protein phosphatase non-receptor type 2 (Homo sapiens, UniProt P17706); test: Inhibition of TCPTP (unknown origin) using p-nitrophenyl phosphate as substrate by colorimetric method
T1 sequence (P17706 whole entry): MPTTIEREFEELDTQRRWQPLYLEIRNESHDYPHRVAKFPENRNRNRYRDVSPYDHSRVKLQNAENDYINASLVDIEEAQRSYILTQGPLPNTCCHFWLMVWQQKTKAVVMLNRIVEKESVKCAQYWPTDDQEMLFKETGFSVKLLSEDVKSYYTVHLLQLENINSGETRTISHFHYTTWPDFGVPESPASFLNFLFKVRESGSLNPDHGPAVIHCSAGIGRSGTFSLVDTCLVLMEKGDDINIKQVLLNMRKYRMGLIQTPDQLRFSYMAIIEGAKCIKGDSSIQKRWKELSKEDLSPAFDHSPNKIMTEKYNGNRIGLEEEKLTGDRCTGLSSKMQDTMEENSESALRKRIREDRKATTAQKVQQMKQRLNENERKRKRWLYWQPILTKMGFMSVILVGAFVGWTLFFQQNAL

[3] = molecular target: T2, Tyrosine-protein phosphatase non-receptor type 1 (Homo sapiens, UniProt P18031); test: Inhibition of human PTP1B (1 to 288 residues) expressed in Escherichia coli BL21 (DE3) cells using p-nitrophenyl phosphate as substrate by colorimetric method
T2 sequence (P18031 whole entry): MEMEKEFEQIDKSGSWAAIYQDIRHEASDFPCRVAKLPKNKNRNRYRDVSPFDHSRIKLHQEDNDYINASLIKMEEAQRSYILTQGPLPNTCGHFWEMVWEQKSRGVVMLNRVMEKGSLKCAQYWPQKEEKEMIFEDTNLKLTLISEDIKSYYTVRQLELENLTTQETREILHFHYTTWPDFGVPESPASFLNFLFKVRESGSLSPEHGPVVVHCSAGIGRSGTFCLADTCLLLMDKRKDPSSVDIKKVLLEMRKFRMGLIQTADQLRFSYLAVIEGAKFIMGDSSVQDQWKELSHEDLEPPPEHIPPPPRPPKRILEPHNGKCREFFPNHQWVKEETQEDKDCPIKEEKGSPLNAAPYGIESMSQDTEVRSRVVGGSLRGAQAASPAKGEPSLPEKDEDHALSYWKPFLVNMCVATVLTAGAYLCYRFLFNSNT

[4] = molecular target: T2, Tyrosine-protein phosphatase non-receptor type 1; test: Inhibition of human PTP1B (1 to 288 residues) expressed in Escherichia coli BL21 (DE3) cells using p-nitrophenyl phosphate as substrate monitered every 30 secs for 15 mins by micro plate reader method
[5] = molecular target: T1, Tyrosine-protein phosphatase non-receptor type 2; test: Inhibition of TCPTP (unknown origin)
Homo sapiens [6] = organism: Homo sapiens; test: Selectivity ratio of IC50 for TCPTP (unknown origin) to IC50 for human PTP1B (1 to 288 residues)
[7] = molecular target: T2, Tyrosine-protein phosphatase non-receptor type 1; test: Inhibition of human recombinant PTP1B expressed in Escherichia coli using p-nitrophenyl phosphate as substrate by UV spectroscopy
[8] = molecular target: T1, Tyrosine-protein phosphatase non-receptor type 2; test: Inhibition of human recombinant TCPTP (1 to 341 residues) expressed in Escherichia coli using p-nitrophenyl phosphate as substrate by UV spectroscopy
Homo sapiens [9] = organism: Homo sapiens; test: Selectivity ratio of IC50 for human recombinant TCPTP (1 to 341 residues) to IC50 for human recombinant PTP1B
[10] = molecular target: T2, Tyrosine-protein phosphatase non-receptor type 1; test: Inhibition of PTP1B catalytic domain (1 to 321 residues) (unknown origin) expressed in Escherichia coli BL21 (DE3) cells using p-Nitrophenyl phosphate as substrate
Homo sapiens [11] = organism: Homo sapiens; test: Selectivity ratio of Ki for TCPTP (unknown origin) to Ki for PTP1B catalytic domain (1 to 321 residues) (unknown origin)
[12] = molecular target: T2, Tyrosine-protein phosphatase non-receptor type 1; test: Inhibition of PTP1B (unknown origin)
[13] = molecular target: T2, Tyrosine-protein phosphatase non-receptor type 1; test: Inhibition of human recombinant PTP1B catalytic domain using p-nitrophenyl phosphate as substrate by micro plate reader method
[14] = molecular target: T1, Tyrosine-protein phosphatase non-receptor type 2; test: Inhibition of human TCPTP using p-nitrophenyl phosphate as substrate by micro plate reader method
Homo sapiens [15] = organism: Homo sapiens; test: Selectivity ratio of IC50 for human TCPTP to IC50 for human recombinant PTP1B
[16] = molecular target: T1, Tyrosine-protein phosphatase non-receptor type 2; test: Inhibition of recombinant TCPTP (unknown origin) at pH 7
[17] = molecular target: T2, Tyrosine-protein phosphatase non-receptor type 1; test: Inhibition of human recombinant PTP1B catalytic domain expressed in Escherichia coli BL21 (DE3) cells using p-Nitrophenyl phosphate as substrate by microplate reader method
[18] = molecular target: T1, Tyrosine-protein phosphatase non-receptor type 2; test: Inhibition of human GST-tagged TCPTP expressed in Escherichia coli BL21 (DE3) cells using p-Nitrophenyl phosphate as substrate by microplate reader method
Homo sapiens [19] = organism: Homo sapiens; test: Selectivity ratio of IC50 for human GST-tagged TCPTP to IC50 for human recombinant PTP1B catalytic domain
[20] = molecular target: T1, Tyrosine-protein phosphatase non-receptor type 2; test: Inhibition of human TCPTP (1 to 296 residues) catalytic domain expressed in Escherichia coli BL21 cells using fluorescein diphosphate as substrate by microplate reader method

Ratio Ki (Homo sapiens [1]): 0.94 | Ki [2]: 160 nM | Ki [3]: 170 nM
Structure (SMILES): CCCCCNC(=O)[C@H](Cc1ccc(C(=O)C(=O)Nc2ccccc2C(=O)O)c(/C=C/C(N)=O)c1)NS(C)(=O)=O

IC50 [4]: 6900 nM | IC50 [5]: 164000 nM | Ratio IC50 (Homo sapiens [6]): 23.8
Structure (SMILES): COC(=O)c1c(O)cccc1OC/C=C/c1ccc(F)c(-c2cc(C(=O)O)no2)c1

IC50 [7]: 1500 nM | IC50 [8]: 2400 nM | Ratio IC50 (Homo sapiens [9]): 1.6
Structure (SMILES): O=C(O)C(=O)c1ccc(OCc2ccc(COc3ccc(C(=O)C(=O)O)cc3)c(C(=O)Nc3ccc(Oc4ccccc4)cc3)c2)cc1

IC50 [5]: 19200 nM | IC50 [12]: 920 nM
Structure (SMILES): COC(=O)c1c(O)cccc1OC/C=C/c1cccc(-c2onc(C(=O)O)c2CO)c1

Ki [16]: 7200 nM
Structure (SMILES): O=C(O)C(=O)Nc1sc2c(c1C(=O)O)CCN(CCc1ccccc1)C2

IC50 [5]: 49 nM
Structure (SMILES): CC(=O)N[C@H](Cc1ccc(N(C(=O)C(=O)O)c2ccccc2C(=O)O)c2ccccc12)C(=O)NCCCCCOc1cc2ccccc2cc1C(=O)O

The next lines start with the compound.

Structure (SMILES): NC(=O)[C@H](Cc1ccc(C(F)(F)P(=O)(O)O)cc1)NC(=O)[C@H](Cc1ccc(O)cc1)NC(=O)Cc1ccc(C(F)(F)P(=O)(O)O)cc1
Ki [5]: 20 nM | Ki [10]: 4.9 nM | Ratio Ki (Homo sapiens [11]): 4.08

Structure (SMILES): CO[C@H]1O[C@H](COCc2ccccc2)[C@@H](OCc2ccccc2)[C@H](OCc2cn(CCCOc3ccc(O)c(C(=O)O)c3)nn2)[C@H]1OCc1cn(CCCOc2ccc(O)c(C(=O)O)c2)nn1
IC50 [13]: 7700 nM | IC50 [14]: 54300 nM | Ratio IC50 (Homo sapiens [15]): 7.05

Structure (SMILES): CO[C@H]1O[C@H](Cn2cc(NC(=O)c3cccc(C(=O)Nc4cn(C[C@H]5O[C@H](OC)[C@H](OCc6ccccc6)[C@H](OCc6ccccc6)[C@@H]5OCc5ccccc5)nn4)c3)nn2)[C@@H](OCc2ccccc2)[C@@H](OCc2ccccc2)[C@H]1OCc1ccccc1
IC50 [13]: 1500 nM | IC50 [14]: 15500 nM | Ratio IC50 (Homo sapiens [15]): 10.3

Structure (SMILES): COC(=O)[C@H](Cc1ccc(O)cc1)n1cc(CO[C@H]2[C@@H](OCc3ccccc3)[C@@H](OC)O[C@H](COCc3ccccc3)[C@H]2OCc2cn([C@@H](Cc3ccc(O)cc3)C(=O)OC)nn2)nn1
IC50 [17]: 9600 nM | IC50 [18]: 59600 nM | Ratio IC50 (Homo sapiens [19]): 6.2

Structure (SMILES): COC(=O)c1ccc(C(C/C=C/c2ccccc2)(Cc2ccc(C(F)(F)P(=O)(O)O)cc2)n2nnc3ccccc32)cc1 (stereo unspecified)
IC50 [20]: 87 nM
